This is an account of results in patent US10736883B2, “Triazole furan compounds as agonists of the APJ receptor” (AMGEN INC., priority 2016, dated 2020).

This experiment deals with APJ receptor (Homo sapiens (Human), UniProt P35414). Kind of experiment: [35S]GTPγS binding assay on membranes from CHO cells stably expressing human APJ receptor. Format: biochemical. Particulars: membranes of CHO cells stably expressing human APJ receptor, means of several independent experiments, read-out: Activity hAPJ SPA EC50 IP. The essentials: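 Membranes from CHO cells stably expressing human APJ were incubated with 0.2 nM [35S]GTPγS and ligands for 90 min at RT in 20 mM HEPES pH 7.5, 5 mM MgCl2, 200 mM NaCl, 3 μM GDP, 0.1% BSA with WGA PS beads. Nonspecific binding was set with 100 μM GTPγS. EC50 came from non-linear regression.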
Sequence of APJ receptor (P35414 whole entry): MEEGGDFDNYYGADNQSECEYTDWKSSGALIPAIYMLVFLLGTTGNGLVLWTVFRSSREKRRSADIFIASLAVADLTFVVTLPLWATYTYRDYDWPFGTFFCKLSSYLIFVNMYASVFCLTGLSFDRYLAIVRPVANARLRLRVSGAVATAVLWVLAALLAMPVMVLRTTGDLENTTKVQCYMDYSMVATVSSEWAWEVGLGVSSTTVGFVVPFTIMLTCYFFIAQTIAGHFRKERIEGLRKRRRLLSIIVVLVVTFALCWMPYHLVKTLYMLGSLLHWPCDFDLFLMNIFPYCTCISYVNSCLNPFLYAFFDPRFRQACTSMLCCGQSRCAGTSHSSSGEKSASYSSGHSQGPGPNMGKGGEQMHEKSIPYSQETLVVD
On the technique in general: GTPγS is a poorly hydrolysed GTP analogue; its binding reports G protein activation.

What is called EC50 is the concentration at which the effect is half-maximal.

In the case of `COc1cccc(OC)c1-n1c(NS(=O)(=O)CCc2ncc(Cl)cc2CCN2CC[C@H](O)C2)nnc1-c1ccco1` [Example 238.0, 2-(5-Chloro-3-(2-((3S)-3-hydroxy-1-pyrrolidinyl)ethyl)-2-pyridinyl)-N-(4-(2,6-dimethoxyphenyl)-5-(2-furanyl)-4H-1,2,4-triazol-3-yl)ethanesulfonamide], the EC50 was 0.59 nM.
On to `COc1cccc(OC)c1-n1c(NS(=O)(=O)[C@H](CCO)Cc2ncc(C)cn2)nnc1-c1ccc(C)o1` [Example 80.0], for which the EC50 is 1.1 nM.
As to `COc1cccc(OC)c1-n1c(NS(=O)(=O)C[C@@H](C)c2ncc(F)cn2)nnc1-c1ccc(C)o1` (racemic) [Example 127.0, (S)—N-(4-(2,6-Dimethoxyphenyl)-5-(5-methylfuran-2-yl)-4H-1,2,4-triazol-3-yl)-2-(5-fluoropyrimidin-2-yl)propane-1-sulfonamide and (R)—N-(4-(2,6-dimethoxyphenyl)-5-(5-methylfuran-2-yl)-4H-1,2,4-triazol-3-yl)-2-(5-fluoropyrimidin-2-yl)propane-1-sulfonamide], the EC50 amounted to 0.65 nM.
For `COc1cccc(OC)c1-n1c(NS(=O)(=O)[C@@H]2CC[C@@H](O)[C@H](O)C2)nnc1-c1ccc(C)o1` (single isomer, unassigned) [Example 406.0], the EC50 turned out to be 67 nM.
Take `COc1cccc(OC)c1-n1c(NS(=O)(=O)c2cccc([C@H](C)O)c2)nnc1-c1ccc(C)o1` (single isomer, unassigned) [Example 410.0, (R)-N-(4-(2,6-dimethoxyphenyl)-5-(5-methylfuran-2-yl)-4H-1,2,4-triazol-3-yl)-3-(1-hydroxyethyl)benzenesulfonamide or (S)-N-(4-(2,6-dimethoxyphenyl)-5-(5-methylfuran-2-yl)-4H-1,2,4-triazol-3-yl)-3-(1-hydroxyethyl)benzenesulfonamide]: the EC50 was found to be 11 nM.
As for `COc1cccc(OC)c1-n1c(NS(=O)(=O)[C@@H](C)[C@H](O)c2ccc(C#N)cc2F)nnc1-c1ccc(C)o1` (single isomer, unassigned) [Example 61.0], the figure is 0.2 nM.
Under `COc1cccc(OC)c1-n1c(NS(=O)(=O)[C@@H](C)[C@H](O)c2cn(C)cn2)nnc1-c1ccc(C)o1` (single isomer, unassigned) [Example 273.0, (1R,2S)—N-(4-(2,6-Dimethoxyphenyl)-5-(5-methyl-2-furanyl)-4H-1,2,4-triazol-3-yl)-1-hydroxy-1-(1-methyl-1H-imidazol-4-yl)-2-propanesulfonamide or (1S,2R)—N-(4-(2,6-dimethoxyphenyl)-5-(5-methyl-2-furanyl)-4H-1,2,4-triazol-3-yl)-1-hydroxy-1-(1-methyl-1H-imidazol-4-yl)-2-propanesulfonamide] stands 0.72 nM.
Under `COc1cccc(OC)c1-n1c(NS(=O)(=O)[C@H]2C[C@@H](O)CN(c3ncc(F)cn3)C2)nnc1-c1ccc(C)o1` (racemic) [Example 332.0] stands 0.45 nM; under `COc1cccc(OC)c1-n1c(NS(=O)(=O)[C@H](C)[C@@H](O)c2ncc(F)cn2)nnc1-c1ccc(C)o1` (racemic) [Example 96.0, (1R,2S)—N-(4-(2,6-Dimethoxyphenyl)-5-(5-methyl-2-furanyl)-4H-1,2,4-triazol-3-yl)-1-(5-fluoro-2-pyrimidinyl)-1-hydroxy-2-propanesulfonamide and (1S,2R)—N-(4-(2,6-dimethoxyphenyl)-5-(5-methyl-2-furanyl)-4H-1,2,4-triazol-3-yl)-1-(5-fluoro-2-pyrimidinyl)-1-hydroxy-2-propanesulfonamide], 0.34 nM; under `COc1cccc(OC)c1-n1c(NS(=O)(=O)[C@@H](C)[C@@H](OC)c2ncc(F)cn2)nnc1-c1ccc(C)o1` (single isomer, unassigned) [Example 132.0, (1S,2S)-N-(4-(2,6-dimethoxyphenyl)-5-(5-methylfuran-2-yl)-4H-1,2,4-triazol-3-yl)-1-(5-fluoropyrimidin-2-yl)-1-methoxypropane-2-sulfonamide or (1R,2R)-N-(4-(2,6-dimethoxyphenyl)-5-(5-methylfuran-2-yl)-4H-1,2,4-triazol-3-yl)-1-(5-fluoropyrimidin-2-yl)-1-methoxypropane-2-sulfonamide], 6.8 nM.
With `COc1cnc(N2C[C@H](O)C[C@H](S(=O)(=O)Nc3nnc(-c4ccc(C)o4)n3-c3c(OC)cccc3OC)C2)nc1` (racemic) [Example 335.0, (3S,5R)—N-(4-(2,6-Dimethoxyphenyl)-5-(5-methylfuran-2-yl)-4H-1,2,4-triazol-3-yl)-5-hydroxy-1-(5-methoxypyrimidin-2-yl)piperidine-3-sulfonamide and (3R,5S)—N-(4-(2,6-dimethoxyphenyl)-5-(5-methylfuran-2-yl)-4H-1,2,4-triazol-3-yl)-5-hydroxy-1-(5-methoxypyrimidin-2-yl)piperidine-3-sulfonamide], the EC50 is 0.52 nM.
Consider `COc1ncnc(OC)c1-n1c(NS(=O)(=O)[C@@H](C)[C@H](C)c2ncc(F)cn2)nnc1-c1ccc(C)o1` [Example 393.0, (2S,3R)-N-(4-(4,6-dimethoxy-5-pyrimidinyl)-5-(5-methyl-2-furanyl)-4H-1,2,4-triazol-3-yl)-3-(5-fluoro-2-pyrimidinyl)-2-butanesulfonamide], for which the EC50 amounted to 0.28 nM.
As for `COc1cccc(OC)c1-n1c(NS(=O)(=O)[C@@H](C)[C@H](O)c2ncc(C#N)cc2F)nnc1-c1ccc(C)o1` (single isomer, unassigned) [Example 68.0], the figure is 0.37 nM.
As to `COc1cccc(OC)c1-n1c(NS(=O)(=O)[C@@H](C)[C@@H](C)c2ncc(F)cn2)nnc1-c1ccc(C)o1` [Example 110.0], the EC50 was 0.97 nM.
Under “(1R,2S)-1-(5-chloro-2-pyrimidinyl)-N-(4-(2,6-dimethoxyphenyl)-5-(5-methyl-2-furanyl)-4H-1,2,4-triazol-3-yl)-1-hydroxy-2-propanesulfonamide or (1S,2R)-1-(5-chloro-2-pyrimidinyl)-N-(4-(2,6-dimethoxyphenyl)-5-(5-methyl-2-furanyl)-4H-1,2,4-triazol-3-yl)-1-hydroxy-2-propanesulfonamide [Example 212.0]” stands 0.074 nM.
Under `COc1cccc(OC)c1-n1c(NS(=O)(=O)[C@H](C)[C@@H](O)c2coc(C)n2)nnc1-c1ccc(C)o1` (single isomer, unassigned) [Example 303.0, (1R,2S)—N-(4-(2,6-Dimethoxyphenyl)-5-(5-methyl-2-furanyl)-4H-1,2,4-triazol-3-yl)-1-hydroxy-1-(2-methyl-1,3-oxazol-4-yl)-2-propanesulfonamide or (1S,2R)—N-(4-(2,6-dimethoxyphenyl)-5-(5-methyl-2-furanyl)-4H-1,2,4-triazol-3-yl)-1-hydroxy-1-(2-methyl-1,3-oxazol-4-yl)-2-propanesulfonamide] stands 13 nM; under `CCO[C@H](c1ncc(C)cn1)[C@@H](C)S(=O)(=O)Nc1nnc(-c2ccc(C)o2)n1-c1c(OC)cccc1OC` (single isomer, unassigned) [Example 130.0, (1R,2R)-N-(4-(2,6-dimethoxyphenyl)-5-(5-methylfuran-2-yl)-4H-1,2,4-triazol-3-yl)-1-ethoxy-1-(5-methylpyrimidin-2-yl)propane-2-sulfonamide or (1S,2S)-N-(4-(2,6-dimethoxyphenyl)-5-(5-methylfuran-2-yl)-4H-1,2,4-triazol-3-yl)-1-ethoxy-1-(5-methylpyrimidin-2-yl)propane-2-sulfonamide], 3.5 nM; under `COc1cccc(OC)c1-n1c(NS(=O)(=O)[C@@H](C)[C@H](C)c2ncc(F)cn2)nnc1-c1ccc(C)o1` (racemic) [Example 135.0], 16 nM.
Under `COc1cccc(OC)c1-n1c(NS(=O)(=O)[C@H](C)Cc2ccncn2)nnc1-c1ccco1` (single isomer, unassigned) [Example 46.0, (2R)—N-(4-(2,6-dimethoxyphenyl)-5-(2-furanyl)-4H-1,2,4-triazol-3-yl)-1-(4-pyrimidinyl)-2-propanesulfonamide or (2S)—N-(4-(2,6-dimethoxyphenyl)-5-(2-furanyl)-4H-1,2,4-triazol-3-yl)-1-(4-pyrimidinyl)-2-propanesulfonamide] stands 300 nM; under `COc1cccc(OC)c1-n1c(NS(=O)(=O)[C@H](C)[C@@H](OC)c2cn3ccccc3n2)nnc1-c1ccc(C)o1` (racemic) [Example 264.0, (1R,2S)—N-(4-(2,6-Dimethoxyphenyl)-5-(5-methyl-2-furanyl)-4H-1,2,4-triazol-3-yl)-1-imidazo[1,2-a]pyridin-2-yl-1-methoxy-2-propanesulfonamide and (1S,2R)—N-(4-(2,6-dimethoxyphenyl)-5-(5-methyl-2-furanyl)-4H-1,2,4-triazol-3-yl)-1-imidazo[1,2-a]pyridin-2-yl-1-methoxy-2-propanesulfonamide], 0.167 nM; under `COc1cccc(OC)c1-n1c(NS(=O)(=O)CCc2ncc(Cl)cc2CCN2CCOCC2)nnc1-c1ccco1` [Example 239.0, 2-(5-Chloro-3-(2-(4-morpholinyl)ethyl)-2-pyridinyl)-N-(4-(2,6-dimethoxyphenyl)-5-(2-furanyl)-4H-1,2,4-triazol-3-yl)ethanesulfonamide], 0.6 nM.
For `COCC[C@@H](Cc1ncc(C)cn1)S(=O)(=O)Nc1nnc(-c2ccc(C)o2)n1-c1c(OC)cccc1OC` (single isomer, unassigned) [Example 71.0, (2R)—N-(4-(2,6-Dimethoxyphenyl)-5-(5-methyl-2-furanyl)-4H-1,2,4-triazol-3-yl)-4-methoxy-1-(5-methyl-2-pyrimidinyl)-2-butanesulfonamide or (2S)—N-(4-(2,6-dimethoxyphenyl)-5-(5-methyl-2-furanyl)-4H-1,2,4-triazol-3-yl)-4-methoxy-1-(5-methyl-2-pyrimidinyl)-2-butanesulfonamide], the EC50 was 0.47 nM.
